# “Also recorded” adds a separate entry of the source.
# Assays:
# [1] = cited from earlier work
# [2] = system: skin fibroblasts of Patient 2; assay: N- and O-linked glycan analysis by MALDI-TOF mass spectroscopy; format: cell-based, human
# Method: Fibroblasts from Patient 2 were used for N- and O-linked glycan analysis with and without D-gal feeding in vitro. Upon reaching 100% confluence, the cells were washed twice with PBS and harvested using a cell scraper. The cells were then pelleted and washed with PBS by centrifugation. Fibroblast pellets were lysed in 200 μL PBS, and 200 μg protein from the cell lysate was denatured and precipitated with ˜2 Å volume of 100% propanol. N-linked and O-linked glycans were released from precipitated protein, and free oligosaccharides were purified from the supernatant. N-linked glycans were released from the cell pellets using the PNGase F kit from New England Biolabs (Ipswich, Mass., USA). O-linked glycans were released using β-elimination with sodium borohydride. The released N-linked glycans from cells or deprotonated total cell lysate were purified and desalted by solid phase extraction using a SepPak C18 and carbograph column. O-linked glycans from cells were purified and desalted using an AG 50W-X8 resin cation exchange column. N-linked glycans, O-linked glycans and oligosaccharides were permethylated with sodium hydroxide and iodomethane in dimethyl sulfoxide (DMSO). After permethylation, glycans were extracted with water/chloroform (2:1, vol/vol) in four steps and dried. Samples were then dissolved in 50% methanol, spotted with 11% 2,5-dihydroxylbenzoic acid matrix (1:1 vol/vol), and measured in triplicates and compared to two healthy controls. Measurements were performed by MALDI-TOF using the positive mode on Ultraflex MALDI-TOF/TOF system (BrunkerDaltonics, Billerica, Mass., USA) as described elsewhere (see, e.g., Xia et al., 2013 Anal Biochem 442:178-185).
# ICAM-1 = ICAM-1 Western blotting with galactose supplementation, patient skin fibroblasts; details: patient 5; all doses
# [3] = system: healthy controls (WT) fibroblasts; assay: Nucleotide sugar analysis (UPLC-PDA), healthy controls; format: cell-based, human
# Method: Levels of nucleotides and sugar-nucleotides were determined. Fibroblast cell pellets (5×10^6 cells per sample) were lysed and extracted in 0.37 ml ice-cold 0.5 M perchloric acid with sonication on ice. Samples were neutralized with 86 μl ice-cold neutralization solution (2.5 M KOH in 1.5 M K2HPO4) after 5 minute sonication. To remove precipitated potassium perchlorate neutralized samples were centrifuged at 4° C. and 16,400×g for 10 minutes and filtered with 0.2 μm filters. Nucleotides and sugar-nucleotides were immediately analyzed and separated via ion-pair reverse phased chromatography using an Acquity HSS T3 column (150 mm×2.1 mm, 1.7 μm, Waters) connected to an Acquity H-class UPLC system. The column temperature was set to 40° C. and the column was equilibrated with solvent A (50 mM potassium phosphate buffer, 8 mM tetrabutylammonium hydrogensulfate, pH 6.5) at a flow rate of 0.45 ml min^−1. Autosampler temperature was maintained at 6° C. […] Nucleotides were detected by Acquity PDA detector (Waters, 260 nm) and quantified using ultrapure standards (Sigma). Data acquisition and processing was performed with the Empower3 software suite (Waters).
# Nucleotide sugars were measured with serum starvation during 18 hours of culturing and without of serum starvation and applying normal media.
# PGM1-CDG fibroblasts = assay: Galactose supplementation of PGM1-CDG fibroblasts, tracer based metabolomics; format: cell-based, human
# Method: To probe the biochemical basis to galactose treatment, a tracer based metabolomics was employed to simultaneously track the activity of multiple pathways. Control and PGM1-CDG fibroblasts were cultured with 13C tagged glucose, with and without galactose. The 13C tracer was then incorporated into connected pathways after which, the cells were harvested to enable detection of metabolites by the mass-spectrometry.
# [4] = 4 days of 0.75 mM galactose following 18 hours of serum starvation
# [5] = 2 mM galactose added to the culture medium for 5 days
smiles,measurement,setting,value
"O=C[C@H](O)[C@@H](O)[C@@H](O)[C@H](O)CO [D-gal, D-galactose]",Peak concentration of D-gal in blood,[1]; 1.0 g/kg dose,2.25 mM
same,Blood concentration of D-gal,[1]; oral dose of 0.3 g/kg,750 µM
same,Blood peak concentration,[1]; oral dose of 1.5 g/kg,3.5 mM
same,"N-glycan m/z 2070.06 Hexose5HexNAc4, Level",[2]; [4],Normal
same,"N-glycan m/z 2431 Sial1Hexose5HexNAc4, Level",[2]; [4],Normal
same,"N-glycan m/z 2605 + 2431 monosialo biantennary glycans, Level",[2]; [4],High
same,"N-glycan m/z 2605 Fuc1Sial1Hexose5HexNAc4, Level",[2]; [4],High
same,"O-glycan m/z 1256 core1, disialyl T, Level",[2]; [4],Low
same,"O-glycan m/z 1706 core2, disalyl, sial2hexose2hexNAc2, Level",[2]; [4],High
same,"O-glycan m/z 1706 core2, disalyl, sial2hexose2hexNAc2, % Total glycan","[2]; 4 days of 0.75 mM galactose following 18 hours of serum starvation, control range 14%",35.12%
same,"O-glycan m/z 1256 core1, disialyl T, % Total glycan","[2]; 4 days of 0.75 mM galactose following 18 hours of serum starvation, control range 55.12%",11.22%
same,"N-glycan m/z 2070.06 Hexose5HexNAc4, % Total glycan","[2]; 4 days of 0.75 mM galactose following 18 hours of serum starvation, control range <3.88%",3.65%
same,"N-glycan m/z 2431 Sial1Hexose5HexNAc4, % Total glycan","[2]; 4 days of 0.75 mM galactose following 18 hours of serum starvation, control range <3.90%",2.23%
same,"N-glycan m/z 2605 Fuc1Sial1Hexose5HexNAc4, % Total glycan","[2]; 4 days of 0.75 mM galactose following 18 hours of serum starvation, control range <4.46%",6.15%
same,"N-glycan m/z 2605 + 2431 monosialo biantennary glycans, % Total glycan","[2]; 4 days of 0.75 mM galactose following 18 hours of serum starvation, control range <8.36%",8.38%
same,Monosialo core 1 at m/z 895,[2]; both in control and PGM1-CDG cells,increased
same,Sialylation of N-glycans,[2]; in vitro galactose treatment of fibroblasts,improved sialylation
same,GlcNAcylation in N-linked or O-linked protein glycosylation profiles,[2]; patient 2 fibroblasts after serum starvation,No change
same,ICAM-1 expression,ICAM-1,No improvement
same,ADP,"[3]; WT, 1 d 2 mM Galactose",483.78 pmol/mio cells
same,AMP,"[3]; WT, 1 d 2 mM Galactose",10.14 pmol/mio cells
same,ATP,"[3]; WT, 1 d 2 mM Galactose",2604.27 pmol/mio cells
same,CTP,"[3]; WT, 1 d 2 mM Galactose",291.83 pmol/mio cells
same,GDP,"[3]; WT, 1 d 2 mM Galactose",194.35 pmol/mio cells
same,GDP-Man,"[3]; WT, 1 d 2 mM Galactose",72.63 pmol/mio cells
same,GTP,"[3]; WT, 1 d 2 mM Galactose",491.50 pmol/mio cells
same,UDP,"[3]; WT, 1 d 2 mM Galactose",159.94 pmol/mio cells
same,UDP-Gal,"[3]; WT, 1 d 2 mM Galactose",400.64 pmol/mio cells
same,UDP-Glc,"[3]; WT, 1 d 2 mM Galactose",345.82 pmol/mio cells
same,UTP,"[3]; WT, 1 d 2 mM Galactose",1267.16 pmol/mio cells
same,cAMP,"[3]; WT, 1 d 2 mM Galactose",77.78 pmol/mio cells
same,ADP,"[3]; WT, 1 d + 0.75 mM Galactose",506.33 pmol/mio cells
same,AMP,"[3]; WT, 1 d + 0.75 mM Galactose",16.00 pmol/mio cells
same,ATP,"[3]; WT, 1 d + 0.75 mM Galactose",2677.06 pmol/mio cells
same,CTP,"[3]; WT, 1 d + 0.75 mM Galactose",288.74 pmol/mio cells
same,GDP,"[3]; WT, 1 d + 0.75 mM Galactose",215.25 pmol/mio cells
same,GDP-Man,"[3]; WT, 1 d + 0.75 mM Galactose",97.79 pmol/mio cells
same,GTP,"[3]; WT, 1 d + 0.75 mM Galactose",519.85 pmol/mio cells
same,UDP,"[3]; WT, 1 d + 0.75 mM Galactose",164.12 pmol/mio cells
same,UDP-Gal,"[3]; WT, 1 d + 0.75 mM Galactose",298.39 pmol/mio cells
same,UDP-Glc,"[3]; WT, 1 d + 0.75 mM Galactose",313.93 pmol/mio cells
same,UTP,"[3]; WT, 1 d + 0.75 mM Galactose",1283.20 pmol/mio cells
same,cAMP,"[3]; WT, 1 d + 0.75 mM Galactose",70.82 pmol/mio cells
same,ADP,"[3]; WT, 4 d 2 mM Galactose",800.89 pmol/mio cells
same,AMP,"[3]; WT, 4 d 2 mM Galactose",43.70 pmol/mio cells
same,ATP,"[3]; WT, 4 d 2 mM Galactose",4045.74 pmol/mio cells
same,CTP,"[3]; WT, 4 d 2 mM Galactose",267.44 pmol/mio cells
same,GDP,"[3]; WT, 4 d 2 mM Galactose",375.01 pmol/mio cells
same,GDP-Man,"[3]; WT, 4 d 2 mM Galactose",179.79 pmol/mio cells
same,GTP,"[3]; WT, 4 d 2 mM Galactose",706.71 pmol/mio cells
same,UDP,"[3]; WT, 4 d 2 mM Galactose",209.11 pmol/mio cells
same,UDP-Gal,"[3]; WT, 4 d 2 mM Galactose",227.46 pmol/mio cells
same,UDP-Glc,"[3]; WT, 4 d 2 mM Galactose",272.66 pmol/mio cells
same,UDP-GlcNAc,"[3]; WT, 4 d 2 mM Galactose",5.74 pmol/mio cells
same,UTP,"[3]; WT, 4 d 2 mM Galactose",1538.99 pmol/mio cells
same,cAMP,"[3]; WT, 4 d 2 mM Galactose",71.87 pmol/mio cells
same,ADP,"[3]; WT, 4 d + 0.75 mM Galactose",670.35 pmol/mio cells
same,AMP,"[3]; WT, 4 d + 0.75 mM Galactose",28.04 pmol/mio cells
same,ATP,"[3]; WT, 4 d + 0.75 mM Galactose",4021.73 pmol/mio cells
same,CTP,"[3]; WT, 4 d + 0.75 mM Galactose",254.91 pmol/mio cells
same,GDP,"[3]; WT, 4 d + 0.75 mM Galactose",307.92 pmol/mio cells
same,GDP-Man,"[3]; WT, 4 d + 0.75 mM Galactose",191.57 pmol/mio cells
same,GTP,"[3]; WT, 4 d + 0.75 mM Galactose",691.97 pmol/mio cells
same,UDP,"[3]; WT, 4 d + 0.75 mM Galactose",156.18 pmol/mio cells
same,UDP-Gal,"[3]; WT, 4 d + 0.75 mM Galactose",219.26 pmol/mio cells
same,UDP-Glc,"[3]; WT, 4 d + 0.75 mM Galactose",268.34 pmol/mio cells
same,UTP,"[3]; WT, 4 d + 0.75 mM Galactose",1495.61 pmol/mio cells
same,cAMP,"[3]; WT, 4 d + 0.75 mM Galactose",67.63 pmol/mio cells
same,UDP-Glc and UDP-Gal levels,"[3]; control cells, increase on first day of D-gal",normalized at 4 days
same,"Nucleotide sugar ratio UDP-Glc/UDP-Gal, mean","[3]; controls, both with or without D-gal",1.2
same,Cellular UDP-hexose pools,PGM1-CDG fibroblasts; [5],significant increase
same,Cellular glycosylation,PGM1-CDG fibroblasts; [5],improved cellular glycosylation
same,Levels of UDP-glucose and UDP-galactose,PGM1-CDG fibroblasts; culture media supplemented with galactose,restored depleted levels; also recorded: significantly increased
same,Glycosylation,PGM1-CDG fibroblasts; culture supplemented with galactose,restarted stalled glycosylation

# Source: patent US20220241311A1, “METHODS AND MATERIALS FOR TREATING GLYCOSYLATION DISORDERS” (priority 2018, published 2022)
